Laboratory results taken from patent US20250352514A1, “SALT FORMS OF BIS(3-(2-(DIMETHYLAMINO)ETHYL)-1 H-INDOL-4-YL) 3,3'¬OXYDIPROPIONATE” (priority 2024, published 2025).

Experiment: Initial polymorphism assessment by slurrying in 12 solvents at room temperature, XRPD
Assay type: physicochemical
Conditions: shaken at room temperature 3-4 days
Text: The vials were capped, sealed with Parafilm®, and then covered with foil. The experiments were shaken at room temperature for 4 days. After 4 days all the experiments had remained as slurries apart from the experiment in water. Portions of solid were removed from each one and analyzed by XRPD.
The vials were capped, sealed with Parafilm® and then covered with foil. The experiments were shaken at room temperature for 3 days. After 3 days all the experiments had remained as slurries. Portions were removed from each one and analyzed by XRPD.

CN(C)CCc1c[nH]c2cccc(OC(=O)CCOCCC(=O)Oc3cccc4[nH]cc(CCN(C)C)c34)c12
XRPD patterns after slurrying in 12 solvents compared with input material: XRPD patterns consistent with the XRPD pattern of the input material
